Assay results as given in patent publication US20220315895A1, “METHODS OF MAKING OLIGOPOTENT AND UNIPOTENT PRECURSORS” (Transfusion Health, LLC, priority 2019, published 2022).

Tests used:
[1] = tested on: CD34+ cells from cord blood; assay: Expansion of cord blood CD34+ cells, seven-day culture (Example 35); assay type: cell-based, human; settings: normalized fold change days 1 to 7
Method: CD34+ cells from cord blood were purchased from STEMCELL Technologies. Primary human CD34+ cells were isolated from cord blood samples using positive immunomagnetic separation techniques. Cells were thawed and gradually brought to room temperature. Samples were washed, then placed in overnight culture in StemSpan with 100 ng/ml each of FLT3L, TPO, SCF, and TL-6. Eighteen to twenty-four hours later (day 1), cells were counted and immunophenotyped (flow cytometry on an Invitrogen Attune N×T cytometer).
Approximately 1000 live cells were plated into each well of 96-well plates; exact cell numbers dispensed per well were quantified with flow cytometry for later calculations.
Media for testing compounds of Formula I was prepared using Alpha MEM without phenol red, 10% (v/v) heat inactivated fetal bovine serum. Culture conditions also included an antibiotic solution that includes penicillin, streptomycin, and amphotericin B to avoid contamination. Additional media components and concentrations used for the compounds tested are described in Table 5.
All incubations for this experiment took place at 3% oxygen (controlled by nitrogen) and 5% CO2. Following seven days of culture, cells from wells were collected and phenotypes were analyzed (flow cytometry on an Invitrogen Attune N×T cytometer).
Table 6 below, summarizes the relative expansive effect of the screened compounds at the indicated concentration. The data in Table 6 is reported as the relative expansive effect. The relative expansive effect is a normalized value of the fold changes shown in each of the figures. It is calculated as shown below: […]

[2] = tested on: CD34+ cells isolated from donor peripheral blood; assay: Enhancement of HSCs derived from non-mobilized peripheral blood with compounds of Formula I (Example 33); assay type: cell-based; settings: normalized fold change days 2 to 7
Method: CD34+ cells were isolated from donor peripheral blood. Standard buffy coat separation using ficoll paque was performed. Cells were pelleted and incubated with unlabeled CD64 antibody. Cells then underwent negative depletion using biotinylated CD2, CD3, CD4, CD5, CD8, CD11b, CD14, CD16, CD19, CD20, CD45RA, CD56, CD235 (in some examples CD15, CD25 and other lineage specific antibodies may also be used). Cells which bind these antibodies are depleted using streptavidin beads. The enriched progenitor pool then undergoes cell sorting for CD34+.
Isolated CD34+ cells were incubated in an in vitro culture media of Alpha MEM without phenol red with 10% (v/v) heat inactivated fetal bovine serum (FBS). When testing compounds of Formula I, two internal controls were used: a positive control (+SF conditions) and a baseline control (i.e. basic conditions (“cytokines only”)). The media components and concentrations used for the compounds tested are described in [0563] Table 2. The culture also included an antibiotic solution that includes penicillin, streptomycin, and amphotericin B to avoid contamination. Controls were included because the amount of expansion in samples obtained varies from individual to individual.
Cultures were incubated at […] (controlled by nitrogen) and 5% CO2.
Small molecule components were added separately and fresh each time the media needs to be refreshed. Cytokines can be stored together. Media renewal should occur at least every few days.
On the days indicated one-half of the volume of the cell culture was removed for data analysis (flow cytometry using a BD FACS ARIA II). The culture volume was replenished with fresh media according to the conditions tested. The data reported accounts for the dilution factor introduced in this procedure.
Separate experiments were performed for each compound tested (Compound 1.001-1.023).
Table 3, below, summarizes the relative expansive effect of Compound 1.001 to 1.023 (sample compounds) at the indicated concentration. The data in Table 3 is reported as the relative expansive effect. The relative expansive effect is a normalized value of the fold changes shown in each of FIG. 1-FIG. 23. It is calculated as shown below: […]

SMILES: CN(C)C(=O)Nc1ccc2c(c1)C(O)c1ccccc1-2 (centres unmarked) [Compound 1.033, 3-(9-hydroxy-9H-fluoren-2-yl)-1,1-dimethylurea]
- CD90 effect (relative expansive effect on CD34+/CD133+/CD90+ cells) ([1]; sample compound 10 μM): ++ (1.44 ≤ x < 1.8)
- CD133 effect (relative expansive effect on CD34+/CD133+ cells) ([1]; sample compound 10 μM): +++ (1.8 ≤ x < 2.16)

SMILES: O=C(Nc1ccc2c(c1)C(O)c1ccccc1-2)C1CCCCO1 (centres unmarked) [Compound 1.031, N-(9-hydroxy-9H-fluoren-2-yl)tetrahydro-2H-pyran-2-carboxamide]
- CD90 effect (relative expansive effect on CD34+/CD133+/CD90+ cells) ([1]; sample compound 10 μM): ++ (1.44 ≤ x < 1.8)
- CD133 effect (relative expansive effect on CD34+/CD133+ cells) ([1]; sample compound 10 μM): +++ (1.8 ≤ x < 2.16)

SMILES: CC(C)(C)C(=O)Oc1ccc2c(c1)C(O)c1ccccc1-2 (centres unmarked) [Compound 1.030, 9-hydroxy-9H-fluoren-2-yl pivalate]
- CD90 effect (relative expansive effect on CD34+/CD133+/CD90+ cells) ([1]; sample compound 10 μM): +++ (1.8 ≤ x < 2.16)
- CD133 effect (relative expansive effect on CD34+/CD133+ cells) ([1]; sample compound 10 μM): +++ (1.8 ≤ x < 2.16)

SMILES: O=C1c2ccccc2-c2ccc([N+](=O)[O-])cc21 [Compound 1.036]
- CD90 effect (relative expansive effect on CD34+/CD133+/CD90+ cells) ([1]; sample compound 10 μM): +++ (1.8 ≤ x < 2.16)
- CD133 effect (relative expansive effect on CD34+/CD133+ cells) ([1]; sample compound 10 μM): ++ (1.44 ≤ x < 1.8)

SMILES: O=C1c2ccccc2-c2ccc(F)cc21 [Compound 1.020]
- CD90 effect (relative expansive effect on CD34+/CD133+/CD90+ cells) ([2]; sample compound 16 μM): ++ (0.2 ≤ x < 0.55)
- CD133 effect (relative expansive effect on CD34+/CD133+ cells) ([2]; sample compound 16 μM): ++ (0.2 ≤ x < 0.55)

SMILES: CC(C)(C)Nc1ccc2c(c1)C(=O)c1ccccc1-2 [Compound 1.004, 2-(tert-butylamino)-9H-fluoren-9-one]
- CD90 effect (relative expansive effect on CD34+/CD133+/CD90+ cells) ([2]; sample compound 8 μM): +++ (0.55 ≤ x < 0.9)
- CD133 effect (relative expansive effect on CD34+/CD133+ cells) ([2]; sample compound 8 μM): ++ (0.2 ≤ x < 0.55)

SMILES: CC(C)(C)C(=O)Nc1ccc2c(c1)C(=O)C1CCCC21 (centres unmarked) [Compound 1.001, N-(8-oxo-1,2,3,3a,8,8a-hexahydrocyclopenta[a]inden-6-yl)pivalamide]
- CD90 effect (relative expansive effect on CD34+/CD133+/CD90+ cells) ([2]; sample compound 0.5 μM): ++ (0.2 ≤ x < 0.55)
- CD133 effect (relative expansive effect on CD34+/CD133+ cells) ([2]; sample compound 0.5 μM): + (x < 0.2)

SMILES: O=C(Nc1ccc2c(c1)C(O)c1ccccc1-2)c1ccc(O)cc1 (centres unmarked) [Compound 1.032, 4-hydroxy-N-(9-hydroxy-9H-fluoren-2-yl)benzamide]
- CD90 effect (relative expansive effect on CD34+/CD133+/CD90+ cells) ([1]; sample compound 10 μM): ++ (1.44 ≤ x < 1.8)
- CD133 effect (relative expansive effect on CD34+/CD133+ cells) ([1]; sample compound 10 μM): ++ (1.44 ≤ x < 1.8)

SMILES: COC1c2ccccc2-c2ccc(NC(=O)C(C)(C)C)cc21 (centres unmarked) [Compound 1.025, N-(9-methoxy-9H-fluoren-2-yl)pivalamide]
- CD90 effect (relative expansive effect on CD34+/CD133+/CD90+ cells) ([1]; sample compound 8 μM): ++++ (2.16 ≤ x < 2.52)
- CD133 effect (relative expansive effect on CD34+/CD133+ cells) ([1]; sample compound 8 μM): +++ (1.8 ≤ x < 2.16)

SMILES: CC(C)(C)C(=O)Nc1ccc2c(c1)C(C#N)c1ccccc1-2 (centres unmarked) [Compound 1.026, N-(9-cyano-9H-fluoren-2-yl)pivalamide]
- CD90 effect (relative expansive effect on CD34+/CD133+/CD90+ cells) ([1]; sample compound 2 μM): ++ (1.44 ≤ x < 1.8)
- CD133 effect (relative expansive effect on CD34+/CD133+ cells) ([1]; sample compound 2 μM): ++ (1.44 ≤ x < 1.8)

SMILES: CC(=O)Nc1ccc2c(c1)C(=O)c1cc(NC(C)=O)ccc1-2 [Compound 1.012, N,N′-(9-oxo-9H-fluorene-2,7-diyl)diacetamide]
- CD90 effect (relative expansive effect on CD34+/CD133+/CD90+ cells) ([2]; sample compound 0.25 μM): ++ (0.2 ≤ x < 0.55)
- CD133 effect (relative expansive effect on CD34+/CD133+ cells) ([2]; sample compound 0.25 μM): ++ (0.2 ≤ x < 0.55)

SMILES: CC(=O)OC1c2ccccc2-c2ccc(NC(=O)C(C)(C)C)cc21 (centres unmarked) [Compound 1.024, 2-pivalamide-9H-fluoren-9-yl acetate]
- CD90 effect (relative expansive effect on CD34+/CD133+/CD90+ cells) ([1]; sample compound 8 μM): ++++ (2.16 ≤ x < 2.52)
- CD133 effect (relative expansive effect on CD34+/CD133+ cells) ([1]; sample compound 8 μM): +++ (1.8 ≤ x < 2.16)

SMILES: CC(C)(C)C(=O)Nc1ccc2c(c1)C(=O)c1ccc(O)cc1-2 [Compound 1.016, N-(6-hydroxy-9-oxo-9H-fluoren-2-yl)pivalamide]
- CD90 effect (relative expansive effect on CD34+/CD133+/CD90+ cells) ([2]; sample compound 16 μM): ++++ (0.9 ≤ x < 1.25)
- CD133 effect (relative expansive effect on CD34+/CD133+ cells) ([2]; sample compound 16 μM): ++ (0.2 ≤ x < 0.55)
